According to ChEMBL document CHEMBL3414484, “Novel imidazole derivatives as heme oxygenase-1 (HO-1) and heme oxygenase-2 (HO-2) inhibitors and their cytotoxic activity in human-derived cancer cell lines” (Eur J Med Chem, 2015):
pIC50: −log10 of the molar value.

Assays:
[1] = molecular target: T1, Heme oxygenase 2 (Rattus norvegicus, UniProt P23711); test: Inhibition of HO2 in Sprague-Dawley rat brain microsomal fraction assessed as reduction in bilirubin formation incubated for 60 mins by double beam spectrophotometry
T1 sequence (P23711 whole entry): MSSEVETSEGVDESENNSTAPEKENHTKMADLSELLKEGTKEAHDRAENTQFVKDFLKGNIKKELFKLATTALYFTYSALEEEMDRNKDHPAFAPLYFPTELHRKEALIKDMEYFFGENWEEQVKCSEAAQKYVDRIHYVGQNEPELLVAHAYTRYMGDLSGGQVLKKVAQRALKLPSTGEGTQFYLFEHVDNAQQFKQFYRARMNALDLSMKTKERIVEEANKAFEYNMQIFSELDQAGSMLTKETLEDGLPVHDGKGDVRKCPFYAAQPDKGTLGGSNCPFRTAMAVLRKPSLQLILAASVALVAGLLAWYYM

[2] = tested on: MDCK; test: Selectivity index, ratio of IC50 for MDCK cells to IC50 human MDA-MB-231 cells
[3] = tested on: MDA-MB-231; test: Cytotoxicity against human MDA-MB-231 cells incubated for 72 hrs by sulforhodamine B assay; type: functional, cell-based; conditions: MDA-MB-231, 72 h
[4] = tested on: MDCK; test: Selectivity index, ratio of IC50 for MDCK cells to IC50 human MCF7 cells
[5] = tested on: LNCaP; test: Cytotoxicity against human LNCAP cells incubated for 72 hrs by sulforhodamine B assay; type: functional, cell-based
[6] = tested on: DU-145; test: Cytotoxicity against human DU145 cells incubated for 72 hrs by sulforhodamine B assay; type: functional, cell-based; conditions: DU-145, 72 h
[7] = Cytotoxicity against human PC3 cells incubated for 72 hrs by sulforhodamine B assay; type: functional, cell-based; conditions: PC-3, 72 h
[8] = tested on: MDCK; test: Cytotoxicity against MDCK cells incubated for 72 hrs by sulforhodamine B assay; type: cell-based; conditions: Canis lupus familiaris
[9] = tested on: MCF7; test: Cytotoxicity against human MCF7 cells incubated for 72 hrs by sulforhodamine B assay; type: functional, cell-based; conditions: MCF7, 72 h
[10] = molecular target: T2, Heme oxygenase 1 (Rattus norvegicus, UniProt P06762); test: Inhibition of HO1 in Sprague-Dawley rat spleen microsomal fraction assessed as reduction in bilirubin formation incubated for 60 mins by double beam spectrophotometry; type: microsomes
T2 sequence (P06762 whole entry): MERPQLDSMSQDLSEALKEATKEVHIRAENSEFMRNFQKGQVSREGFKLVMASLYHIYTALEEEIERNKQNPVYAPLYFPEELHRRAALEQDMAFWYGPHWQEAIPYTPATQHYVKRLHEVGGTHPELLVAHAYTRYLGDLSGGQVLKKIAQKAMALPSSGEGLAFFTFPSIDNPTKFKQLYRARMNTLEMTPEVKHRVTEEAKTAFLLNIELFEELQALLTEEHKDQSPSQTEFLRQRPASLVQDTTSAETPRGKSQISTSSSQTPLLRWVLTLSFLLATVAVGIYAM

[11] = tested on: DU-145; test: Selectivity index, ratio of IC50 for MDCK cells to IC50 human DU145 cells
[12] = tested on: MDCK; test: Selectivity index, ratio of IC50 for MDCK cells to IC50 human PC3 cells
[13] = tested on: LNCaP; test: Selectivity index, ratio of IC50 for MDCK cells to IC50 human LNCAP cells

Question: With `Ic1ccc(OCCCn2ccnc2)cc1` as the compound, how does the pIC50 [1] read?
Answer: 4.44

Question: With `O=[N+]([O-])c1ccc(OCCCn2ccnc2)cc1` as the compound, how does the pIC50 [1] read?
Answer: 4.11

Question: With `c1ccc2sc(SCCCCn3ccnc3)nc2c1` as the compound, how does the “Ratio IC50” value [2] read?
Answer: 2

Question: And the pIC50 [3]?
Answer: 4.26

Question: And the “Ratio IC50” value [4]?
Answer: 2

Question: And the pIC50 [5]?
Answer: 4.26

Question: And the pIC50 [6]?
Answer: 4.08

Question: What about the pIC50 [7] of the same compound?
Answer: 4.08

Question: And the pIC50 [8]?
Answer: 4.23

Question: And the pIC50 [9]?
Answer: 4.56

Question: And the pIC50 [1]?
Answer: 6.10

Question: And the pIC50 [10]?
Answer: 6.00

Question: And the “Ratio IC50” value [11]?
Answer: 2

Question: What about the “Ratio IC50” value [12] of the same compound?
Answer: 2

Question: And the “Ratio IC50” value [13]?
Answer: 2

Question: With `c1ccc(OCCCn2cncn2)cc1` as the compound, how does the pIC50 [1] read?
Answer: < 4.00

Question: What does the source list for `O=c1oc2ccccc2n1CCCCn1ccnc1`?
Answer: pIC50 [1]: 4.45; pIC50 [10]: 4.75

Question: With `O=[N+]([O-])c1ccc(OCCCn2cncn2)cc1` as the compound, how does the pIC50 [1] read?
Answer: 4.35

Question: What does the source list for `Ic1ccc(OCCCCCCn2ccnc2)cc1`?
Answer: pIC50 [1]: < 4.00; pIC50 [10]: 4.38

Question: With `Brc1cccc(OCCCCCn2ccnc2)c1` as the compound, how does the pIC50 [1] read?
Answer: 6.05

Question: What about the pIC50 [10] of the same compound?
Answer: 4.37

Question: Which “Ratio IC50” value [2] does the source give for `Ic1ccc(OCCCCCn2ccnc2)cc1` here?
Answer: 2

Question: And the pIC50 [3]?
Answer: 4.56

Question: And the “Ratio IC50” value [4]?
Answer: 2

Question: What about the pIC50 [5] of the same compound?
Answer: 4.56

Question: And the pIC50 [6]?
Answer: 4.56

Question: What about the pIC50 [7] of the same compound?
Answer: 4.56

Question: And the pIC50 [8]?
Answer: 4.26

Question: And the pIC50 [9]?
Answer: 4.96

Question: And the pIC50 [1]?
Answer: 6.05

Question: And the pIC50 [10]?
Answer: 4.36

Question: What about the “Ratio IC50” value [11] of the same compound?
Answer: 2

Question: And the “Ratio IC50” value [12]?
Answer: 2

Question: And the “Ratio IC50” value [13]?
Answer: 2

Question: What does the source list for `c1ccc2oc(SCCCCn3ccnc3)nc2c1`?
Answer: pIC50 [1]: 4.13; pIC50 [10]: 4.51

Question: What does the source list for `O=c1sc2ccccc2n1CCCn1ccnc1`?
Answer: pIC50 [1]: 4.54; pIC50 [10]: 4.78

Question: Which results are given for `Brc1cccc(OCCCCCCn2ccnc2)c1`?
Answer: pIC50 [1]: 4.39; pIC50 [10]: 4.47

Question: What does the source list for `Clc1ccc2sc(SCCCn3ccnc3)nc2c1`?
Answer: pIC50 [1]: 6.05; pIC50 [10]: 4.74

Question: Which results are given for `Ic1ccc(OCCCCn2ccnc2)cc1`?
Answer: Ratio IC50 [2]: 2; pIC50 [3]: 4.26; Ratio IC50 [4]: 2; pIC50 [5]: 4.77; pIC50 [6]: 4.26; pIC50 [7]: 4.08; pIC50 [8]: 3.99; pIC50 [9]: 4.56; Ratio IC50 [11]: 2; Ratio IC50 [12]: 2; Ratio IC50 [13]: 2

Question: With `c1ccc2sc(SCCCCCn3ccnc3)nc2c1` as the compound, how does the pIC50 [1] read?
Answer: 4.95

Question: And the pIC50 [10]?
Answer: 4.40

Question: What does the source list for `Brc1cccc(OCCCCn2ccnc2)c1`?
Answer: Ratio IC50 [2]: 2; pIC50 [3]: 4.56; Ratio IC50 [4]: 2; pIC50 [5]: 4.56; pIC50 [6]: 4.33; pIC50 [7]: 4.26; pIC50 [8]: 4.08; pIC50 [9]: 4.56; Ratio IC50 [11]: 2; Ratio IC50 [12]: 2; Ratio IC50 [13]: 2

Question: With `c1ccc2oc(SCCCn3ccnc3)nc2c1` as the compound, how does the pIC50 [1] read?
Answer: 4.31

Question: And the pIC50 [10]?
Answer: 4.77

Question: With `Brc1cccc(OCCCCCn2cncn2)c1` as the compound, how does the pIC50 [1] read?
Answer: 6.10

Question: What about the pIC50 [10] of the same compound?
Answer: 4.70

Question: With `c1ccc2sc(SCCCn3ccnc3)nc2c1` as the compound, how does the “Ratio IC50” value [2] read?
Answer: 2

Question: What about the pIC50 [3] of the same compound?
Answer: 4.26

Question: What about the “Ratio IC50” value [4] of the same compound?
Answer: 2

Question: What about the pIC50 [5] of the same compound?
Answer: 4.26

Question: And the pIC50 [6]?
Answer: 4.26

Question: And the pIC50 [7]?
Answer: 4.08

Question: And the pIC50 [8]?
Answer: 4.08

Question: And the pIC50 [9]?
Answer: 4.56

Question: What about the pIC50 [1] of the same compound?
Answer: 4.90

Question: What about the pIC50 [10] of the same compound?
Answer: 6.05

Question: What about the “Ratio IC50” value [11] of the same compound?
Answer: 2

Question: What about the “Ratio IC50” value [12] of the same compound?
Answer: 2

Question: What about the “Ratio IC50” value [13] of the same compound?
Answer: 2

Question: With `O=[N+]([O-])c1ccc(OCCCCn2cncn2)cc1` as the compound, how does the pIC50 [1] read?
Answer: 4.38

Question: With `Brc1cccc(OCCCCn2cncn2)c1` as the compound, how does the pIC50 [1] read?
Answer: 4.95

Question: With `Clc1ccc2sc(SCCCCCn3ccnc3)nc2c1` as the compound, how does the pIC50 [1] read?
Answer: 6.05

Question: And the pIC50 [10]?
Answer: 4.44

Question: With `Clc1ccc2sc(SCCCCn3ccnc3)nc2c1` as the compound, how does the pIC50 [1] read?
Answer: 6.05

Question: And the pIC50 [10]?
Answer: < 4.00

Question: With `Brc1cccc(OCCCn2cncn2)c1` as the compound, how does the pIC50 [1] read?
Answer: 4.47
